Laboratory results from ChEMBL document CHEMBL1275601, “Striking species difference in the contribution of concentrative nucleoside transporter 2 to nucleoside uptake between mouse and rat hepatocytes” (Antimicrob Agents Chemother, 2010).
Calls of active or inactive are those of the source. No cut-off for these calls is given here.

Experiments:
Assay type in all cases: cell-based
[1] = target: T1, Equilibrative nucleoside transporter 1 (Rattus norvegicus) (UniProt O54698); assay: Transport through ENT1 in rat hepatocytes by oil filtration assay in presence of sodium ions in Kreb-henseleit buffer; conditions: Hepatocyte
T1 sequence (whole entry): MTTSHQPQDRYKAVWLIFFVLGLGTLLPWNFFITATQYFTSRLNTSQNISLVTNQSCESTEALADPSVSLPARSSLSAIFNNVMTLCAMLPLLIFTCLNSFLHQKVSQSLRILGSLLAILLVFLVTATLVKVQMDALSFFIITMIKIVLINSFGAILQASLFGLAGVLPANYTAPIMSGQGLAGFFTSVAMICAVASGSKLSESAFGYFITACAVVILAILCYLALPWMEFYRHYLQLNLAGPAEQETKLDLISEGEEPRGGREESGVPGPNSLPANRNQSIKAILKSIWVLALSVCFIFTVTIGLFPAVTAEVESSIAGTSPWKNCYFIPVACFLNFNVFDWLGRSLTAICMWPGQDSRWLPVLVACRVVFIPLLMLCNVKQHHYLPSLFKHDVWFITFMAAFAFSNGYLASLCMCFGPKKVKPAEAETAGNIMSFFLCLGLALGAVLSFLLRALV

[2] = target: T2, Equilibrative nucleoside transporter 2 (Rattus norvegicus) (UniProt O54699); assay: Transport through ENT2 in rat hepatocytes by oil filtration assay in presence of sodium ions in Kreb-henseleit buffer; conditions: Hepatocyte
T2 sequence (whole entry): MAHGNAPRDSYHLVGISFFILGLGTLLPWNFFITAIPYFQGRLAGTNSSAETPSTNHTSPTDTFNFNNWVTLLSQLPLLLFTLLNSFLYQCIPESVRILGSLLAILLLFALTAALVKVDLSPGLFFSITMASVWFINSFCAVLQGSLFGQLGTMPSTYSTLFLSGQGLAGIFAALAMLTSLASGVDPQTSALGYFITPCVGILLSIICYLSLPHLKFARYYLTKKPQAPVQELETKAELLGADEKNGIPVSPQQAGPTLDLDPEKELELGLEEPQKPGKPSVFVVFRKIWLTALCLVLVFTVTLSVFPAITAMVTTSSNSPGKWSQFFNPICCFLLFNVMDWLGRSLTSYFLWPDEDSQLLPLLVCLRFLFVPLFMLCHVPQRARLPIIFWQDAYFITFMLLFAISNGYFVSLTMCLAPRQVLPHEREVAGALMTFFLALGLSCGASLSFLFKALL

[3] = test system: Hepatocyte; assay: Transport through CNT3 in rat hepatocytes by oil filtration assay
[4] = target: T1, Equilibrative nucleoside transporter 1 (Rattus norvegicus); assay: Transport through ENT1 in rat hepatocytes by oil filtration assay in presence of sodium ions in Kreb-henseleit buffer containing 100 uM NBMPR; conditions: Hepatocyte
[5] = target: T2, Equilibrative nucleoside transporter 2 (Rattus norvegicus); assay: Transport through ENT2 in rat hepatocytes by oil filtration assay in presence of sodium ions in Kreb-henseleit buffer containing 100 uM NBMPR; conditions: Hepatocyte
[6] = target: T3, Sodium/nucleoside cotransporter 1 (Rattus norvegicus) (UniProt Q62674); assay: Transport through CNT1 in rat hepatocytes by oil filtration assay in presence of sodium ions in Kreb-henseleit buffer containing 100 uM NBMPR and thymidine; conditions: Hepatocyte
T3 sequence (whole entry): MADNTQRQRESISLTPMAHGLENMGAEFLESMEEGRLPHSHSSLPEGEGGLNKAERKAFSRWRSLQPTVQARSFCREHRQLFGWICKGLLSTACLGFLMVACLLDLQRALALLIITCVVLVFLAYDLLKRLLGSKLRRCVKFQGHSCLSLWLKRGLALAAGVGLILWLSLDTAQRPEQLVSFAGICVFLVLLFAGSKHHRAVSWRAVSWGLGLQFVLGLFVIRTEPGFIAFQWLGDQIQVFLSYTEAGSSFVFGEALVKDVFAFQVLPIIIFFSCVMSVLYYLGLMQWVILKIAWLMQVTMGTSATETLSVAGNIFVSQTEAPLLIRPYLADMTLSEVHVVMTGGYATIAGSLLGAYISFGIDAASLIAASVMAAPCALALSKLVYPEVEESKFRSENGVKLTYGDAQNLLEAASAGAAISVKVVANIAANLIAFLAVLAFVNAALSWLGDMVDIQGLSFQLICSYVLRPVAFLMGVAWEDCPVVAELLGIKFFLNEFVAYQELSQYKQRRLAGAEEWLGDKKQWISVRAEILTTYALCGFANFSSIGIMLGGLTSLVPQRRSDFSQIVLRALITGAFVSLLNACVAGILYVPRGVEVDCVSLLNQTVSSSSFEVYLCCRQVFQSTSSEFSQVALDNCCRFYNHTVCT

[7] = target: T1, Equilibrative nucleoside transporter 1 (Rattus norvegicus); assay: Transport through ENT1 in rat hepatocytes by oil filtration assay in presence of sodium ions in Kreb-henseleit buffer containing 100 uM NBMPR and 1 mM uridine; conditions: Hepatocyte
[8] = test system: Hepatocyte; assay: Transport through CNT3 in rat hepatocytes by oil filtration assay in presence of sodium ions in Kreb-henseleit buffer containing 100 uM NBMPR and 1 mM uridine
[9] = target: T1, Equilibrative nucleoside transporter 1 (Rattus norvegicus); assay: Transport through ENT1 in rat hepatocytes by oil filtration assay in presence 100 nM of transporter inhibitor NBMRP; conditions: Hepatocyte
[10] = target: T1, Equilibrative nucleoside transporter 1 (Rattus norvegicus); assay: Transport through ENT1 in rat hepatocytes by oil filtration assay in presence 100 uM of transporter inhibitor NBMRP; conditions: Hepatocyte
[11] = target: T4, Equilibrative nucleoside transporter 2 (Mus musculus) (UniProt Q61672); assay: Transport through ENT2 in mouse hepatocytes by oil filtration assay in presence 100 uM of transporter inhibitor NBMRP; conditions: Hepatocyte
T4 sequence (whole entry): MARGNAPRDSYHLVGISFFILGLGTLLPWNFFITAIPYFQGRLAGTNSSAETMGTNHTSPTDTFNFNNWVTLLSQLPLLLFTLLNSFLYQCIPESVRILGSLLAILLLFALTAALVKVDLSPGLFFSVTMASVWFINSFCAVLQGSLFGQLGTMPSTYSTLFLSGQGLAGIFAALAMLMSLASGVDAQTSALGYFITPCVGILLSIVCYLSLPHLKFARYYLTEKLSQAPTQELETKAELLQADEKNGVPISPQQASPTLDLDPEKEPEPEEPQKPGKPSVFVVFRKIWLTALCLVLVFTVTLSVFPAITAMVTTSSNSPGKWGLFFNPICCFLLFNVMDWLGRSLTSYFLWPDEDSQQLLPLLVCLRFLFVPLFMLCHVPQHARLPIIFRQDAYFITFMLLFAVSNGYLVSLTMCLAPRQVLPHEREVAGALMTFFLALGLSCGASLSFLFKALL

SMILES	Activity [1]	Activity [2]	Activity [3]	Activity [4]	Activity [5]	Activity [6]	Activity [7]	Activity [8]	Activity [9]	Activity [10]	Activity [11]
Nc1ncnc2c1ncn2[C@@H]1O[C@H](CO)[C@@H](O)[C@H]1O	inactive	Active	inactive	Active	Active	inactive	inactive	inactive	inactive	inactive	inactive
NC(=O)c1ncn([C@@H]2O[C@H](CO)[C@@H](O)[C@H]2O)n1	inactive	Active	Active	Active	Active	inactive	inactive	inactive	inactive	inactive	inactive
